The record followed here is PubChem BioAssay AID1996.

By solubility (kinetic) is commonly meant solubility judged after dilution from a stock solution rather than from solid.

Values after ≈ are worked out from the molar mass of the structure shown. Bounds are passed on as bounds.

The conditions of the data set: buffer; pH 7.4; 200.0 µM.
Regarding `CCC1(C)CC(C(N)=S)CCO1` (configuration not stated), the solubility (kinetic) is 17.1 µg/mL (≈ 91.3 µM).
In turn, `CCC(C)c1ccccc1NC(=O)c1[nH]c(C)c(C(C)=O)c1C` (configuration not stated) yielded a kinetic solubility of 2 µg/mL (≈ 6.4 µM).
`FC(F)(F)c1cc(N2CCNCC2)c2ccccc2n1` showed a kinetic solubility of 41.6 µg/mL (≈ 148 µM).
With `O=C(Cc1ccc(F)cc1)OCN1C(=O)c2ccccc2C1=O` the figure was 39.8 µg/mL (≈ 127 µM).
Then `COc1cccc(C(C)NC(=O)C2CCCO2)c1` (configuration not stated), with 36.1 µg/mL (≈ 145 µM); and `CCN(C(=O)COC(=O)CN1C(=O)c2ccccc2C1=O)c1ccccc1`, with greater than 55 µg/mL; and `COc1cc2ccccc2cc1C(=O)N1CCc2ccccc21`, with 1.9 µg/mL (≈ 6.26 µM).
The compound `COc1cccc(/C=C/C(=O)OCC(=O)N2CCCC2)c1OC` gave a kinetic solubility greater than 47.9 µg/mL.
In turn, `CCCCn1c(N)c(N(CC)C(=O)COc2ccc(C#N)cc2)c(=O)[nH]c1=O` returned a solubility (kinetic) of 15.6 µg/mL (≈ 40.5 µM).
For `Cc1ccc(NS(=O)(=O)c2ccc3c(c2)oc(=O)n3C)cc1`, the kinetic solubility is 1.6 µg/mL (≈ 5.03 µM).
Take `Cc1cccc(OCCc2c(C)[nH]c(=S)[nH]c2=O)c1`: the kinetic solubility came to 3.2 µg/mL (≈ 11.6 µM).
`Cc1ccccc1CC(=O)N1CCCc2ccccc21`: the solubility (kinetic) stood at 36.5 µg/mL (≈ 138 µM).
Then `CSc1ncc(Cl)c(C(=O)Nc2ccccc2C)n1`, with 1.3 µg/mL (≈ 4.43 µM).
Consider `O=C(CSc1ccc(Cl)cc1)NC(=O)c1ccccc1`, for which the kinetic solubility is 6.4 µg/mL (≈ 20.9 µM).
`CC(=O)Oc1ccc(C(=O)NCc2ccc3c(c2)OCO3)cc1` yielded a solubility (kinetic) of 29.1 µg/mL (≈ 92.9 µM).
Compound `O=[N+]([O-])c1cccc(S(=O)(=O)NCCCn2ccnc2)c1` had a solubility (kinetic) greater than 46.5 µg/mL.
With `O=C(CNC(=O)c1ccco1)N/N=C/c1ccc(C(=O)O)cc1`, the kinetic solubility is greater than 47.3 µg/mL.
For the compound `COc1ccccc1C(=O)COC(=O)CN1C(=O)C2CC=CCC2C1=O` (configuration not stated), the kinetic solubility is 52 µg/mL (≈ 146 µM).
Then `CC1(c2ccccc2)NC(=O)N(CC(=O)N(c2ccccc2)C2CCS(=O)(=O)C2)C1=O` (configuration not stated), with 60.3 µg/mL (≈ 137 µM); and `CC1CCN(C2=NC(=O)/C(=C/c3cccc(O)c3)S2)CC1`, with 2.3 µg/mL (≈ 7.61 µM).
Compound `CC(=O)N1CCN(C(=O)CNC(=O)c2cccs2)CC1` gave a kinetic solubility greater than 44.3 µg/mL.
The compound `O=Cc1ccc2ccc3cccnc3c2n1` registered a solubility (kinetic) greater than 31.2 µg/mL.
With `COCCNC(=S)N1CCCC(CO)C1` (configuration not stated) the figure was greater than 34.9 µg/mL; with `Nc1ncnc2nc(SCCC(=O)O)[nH]c12`, greater than 35.9 µg/mL.
Consider `CC(C)(C)c1ccc(C(=O)NCCN2CCOCC2)cc1`, for which the kinetic solubility was greater than 43.6 µg/mL.
In turn, `O=C(Nn1cnc2ccccc2c1=O)c1ccccc1F` had a kinetic solubility greater than 42.5 µg/mL.
Consider `Cc1nc(C)c(C(=O)Nc2cccc(F)c2)s1`, for which the solubility (kinetic) was greater than 37.5 µg/mL.
Regarding `Cc1ccc(-c2cn(-c3ccccc3F)c(=S)[nH]2)cc1`, the kinetic solubility was 1.1 µg/mL (≈ 3.87 µM).
As to `O=C(COC(=O)c1ccccc1F)NC1CCCC1`, the kinetic solubility is greater than 39.8 µg/mL.
`CCCN1CCC(N2CCN(c3ccc([N+](=O)[O-])cc3)CC2)CC1` registered a solubility (kinetic) of 32.3 µg/mL (≈ 97.2 µM).
As for `C=CCN(CC=C)C(=S)NC(=O)c1ccc(OC)cc1`, the kinetic solubility is greater than 43.6 µg/mL.
`CC(=O)c1cccc(NC(=O)c2ccccc2-c2ccccc2C(=O)O)c1`: the kinetic solubility is greater than 53.9 µg/mL.
For `Cc1nc(-c2ccccn2)nc(SCC(=O)c2ccc(F)cc2)c1Cl`, the kinetic solubility was determined as 2.4 µg/mL (≈ 6.42 µM).
As for `COc1ccc(-c2nc(CN3CCN(c4ncccn4)CC3)c(C)o2)cc1C`, the solubility (kinetic) is 39 µg/mL (≈ 103 µM).
In turn, `Cc1cc(F)ccc1NC(=O)C1CCCO1` (configuration not stated) had a kinetic solubility of 33.3 µg/mL (≈ 149 µM).
As for `CC(C)C(O)(C(=O)NNc1ccccc1)C(C)C`, the solubility (kinetic) was greater than 37.6 µg/mL.
In turn, `CCOC(=O)c1ccc2c(c1)nc(-c1ccccn1)n2CC` came in with a kinetic solubility of 11.4 µg/mL (≈ 38.6 µM).
Then `O=C(Nc1ccccc1)Nc1ccc(C(F)(F)F)cn1`, with 0.2 µg/mL (≈ 0.711 µM).
Take `CC(C)c1ccc(CNc2ccc3c(c2)ncn3C)cc1`: the kinetic solubility was determined as 22 µg/mL (≈ 78.7 µM).
`O=C(NCc1cccnc1)Nc1cccc(Cl)c1Cl` had a solubility (kinetic) of 27.7 µg/mL (≈ 93.5 µM).
With `Cc1ccc(C(=O)Nc2nc(C)c(C(=O)N(C)C)s2)o1` the figure was 40.3 µg/mL (≈ 137 µM); with `COc1ccc(CC(=O)Nc2nc(C(C)(C)C)cs2)cc1`, 2.1 µg/mL (≈ 6.9 µM).
As for `COc1ccc(-c2cc3nc(CCl)[nH]c(=O)c3s2)cc1`, the kinetic solubility amounted to 2.8 µg/mL (≈ 9.13 µM).
The compound `CCc1ccccc1NS(=O)(=O)c1cccc2nsnc12` displayed a solubility (kinetic) of 44.8 µg/mL (≈ 140 µM).
Consider `O=C(NC1CCCC1)C1CCN(C(=O)c2cccc(Cl)c2)CC1`, for which the kinetic solubility was greater than 50.2 µg/mL.
With `COC(=O)c1cc(OC)c(OC)cc1NC(=O)c1csc(C)c1` the figure was less than 0.7 µg/mL.
Compound `Cc1cccc(C)c1NC(=O)CNC(=O)Cc1ccccc1[N+](=O)[O-]` registered a solubility (kinetic) of 18.2 µg/mL (≈ 53.3 µM).
With `O=C(c1ccc(F)cc1)N1CCN(c2ccc([N+](=O)[O-])cc2-n2cccc2)CC1`, the solubility (kinetic) was 3.3 µg/mL (≈ 8.37 µM).
`CSc1ncc(CN2CCN(CCC(C)C)C(CCO)C2)cn1` (configuration not stated) displayed a solubility (kinetic) of 41.7 µg/mL (≈ 123 µM).
Turning to `CC1(C)C(=O)Nc2ccccc2N1C(=O)CSc1ncccn1`, the kinetic solubility was greater than 49.3 µg/mL.
With `c1ccc(CCCc2nc(-c3cccnc3)no2)cc1` the figure was 30.5 µg/mL (≈ 115 µM); with `O=C(/C=C/c1cccc(C(F)(F)F)c1)N1CCN(c2ccccn2)CC1`, 4 µg/mL (≈ 11.1 µM).
